Reference: patent US10011571B2, “Preparation method for aromatic heterocyclic compound used as selective JAK3 and/or JAK1 kinase inhibitor and application of aromatic heterocyclic compound” (SHENZHEN CHIPSCREEN BIOSCIENCES, LTD., priority 2014, dated 2018)

Key:
Type in all cases: biochemical
JAK1 = JAK1 (Homo sapiens (Human), UniProt P23458); assay: Z'-LYTE enzymatic activity detection, JAK1; conditions: test compound 300 nM; for inhibition at 0.3 µM: read-out: JAK1 % inhibitory rate @300 nM
How it was run: (§1)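 GST-tagged human recombinant kinases with Z′-LYTE peptides (Tyr6 for JAK1, Tyr4 for JAK2 and JAK3), ATP from kit, reacted 1 h at room temperature; development 1 h, ratio 445/520 nm at 400 nm excitation gives phosphorylation. Inhibition vs solvent control at 30 nM (JAK2, JAK3) or 300 nM (JAK1); tofacitinib as positive control.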

BLK = BLK (Homo sapiens, UniProt P51451); assay: Eurofins IC50Profiler radiometric kinase assay, BLK; conditions: 9 semilog concentrations
Chain of BLK (P51451 2-505 limits assumed): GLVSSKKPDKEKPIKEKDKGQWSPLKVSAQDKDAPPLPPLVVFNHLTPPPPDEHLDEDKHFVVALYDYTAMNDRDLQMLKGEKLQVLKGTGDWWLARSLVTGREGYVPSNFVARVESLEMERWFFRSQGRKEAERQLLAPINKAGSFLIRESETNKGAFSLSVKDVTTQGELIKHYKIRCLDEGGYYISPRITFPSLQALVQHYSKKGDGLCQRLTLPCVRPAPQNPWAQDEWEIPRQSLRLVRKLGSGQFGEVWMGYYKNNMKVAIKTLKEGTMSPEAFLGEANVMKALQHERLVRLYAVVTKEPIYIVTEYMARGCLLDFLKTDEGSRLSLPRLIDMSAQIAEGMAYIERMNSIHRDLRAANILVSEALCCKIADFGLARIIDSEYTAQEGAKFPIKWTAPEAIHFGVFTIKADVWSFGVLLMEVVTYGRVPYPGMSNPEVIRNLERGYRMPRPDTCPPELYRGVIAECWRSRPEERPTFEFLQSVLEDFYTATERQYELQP
Description: (§2) A proportion of the compounds of the present invention are subjected to kinase profile screening (KinaseProfiler™)) and enzymatic inhibitory activity (IC50Profiler™)) assay by entrusting Eurofins company (http://www.eurofins.com). Besides the kinases in the JAK family, the kinases that have been screened for their activity also include most Group 3F and Group 4 kinases (ITK, BLK, TBK1, VEGFRs, ERBBs, etc.), and blood system related kinases (Zhang J. et al. 2009, Nat. Rev. Cancer., 9: 28-39). The concentration of the test compound for kinase profile screening is 1 μM, and a gradient of 9 semilog concentration gradients are used to determine IC50. Detection is carried out according to standard procedure of Eurofins Company. Briefly, according to the requirements of different kinase reactions, 0.2 μL test compound (50 μM, dissolved in dimethyl sulfoxide (DMSO)) is added to reaction buffer containing specific kinase (the buffer system containing 20 mM MOPS, 1 mM EDTA, 0.01% Brij-35, 5% Glycerol, 0.1% β-mercaptoethanol, 1 mg/mL BSA, or 50 mM TRIS, 0.1 mM EGTA, 0.1 mM Na3VO4, 0.1% β-mercaptoethanol, 1 mg/mL BSA, based on the type of kinase used). Subsequently, a kinase specific substrate at a final concentration of 50 μM (specific substrate used for specific kinase), 10 mM Mg Acetate and isotope-labeled γ-^33P ATP (radio-activity of about 500 cpm/pmol) are sequentially added to a total volume of 10 μL for the reaction system. After incubation at room temperature for 40 min, the reaction is terminated by adding 3% phosphoric acid solution. The mixture is then transferred to a filter-type low temperature spray dryer (P30 filtermat), and washed by 75 mM phosphoric acid solution for 3 times and by methanol once. After drying, radio-activity is detected. For specific procedure, see the standard procedure provided by Eurofins Company: http://www.eurofins.com/media/9724077/kinaseprofiler_assay_protocol_guide_eurofins_v64.pdf).

JAK2 [1] = biological target: T1, JAK2 (Homo sapiens (Human), UniProt O60674); assay: Eurofins IC50Profiler radiometric kinase assay, JAK2; conditions: 9 semilog concentrations
Description: as §2
Target sequence in this assay (O60674 whole entry, species assumed): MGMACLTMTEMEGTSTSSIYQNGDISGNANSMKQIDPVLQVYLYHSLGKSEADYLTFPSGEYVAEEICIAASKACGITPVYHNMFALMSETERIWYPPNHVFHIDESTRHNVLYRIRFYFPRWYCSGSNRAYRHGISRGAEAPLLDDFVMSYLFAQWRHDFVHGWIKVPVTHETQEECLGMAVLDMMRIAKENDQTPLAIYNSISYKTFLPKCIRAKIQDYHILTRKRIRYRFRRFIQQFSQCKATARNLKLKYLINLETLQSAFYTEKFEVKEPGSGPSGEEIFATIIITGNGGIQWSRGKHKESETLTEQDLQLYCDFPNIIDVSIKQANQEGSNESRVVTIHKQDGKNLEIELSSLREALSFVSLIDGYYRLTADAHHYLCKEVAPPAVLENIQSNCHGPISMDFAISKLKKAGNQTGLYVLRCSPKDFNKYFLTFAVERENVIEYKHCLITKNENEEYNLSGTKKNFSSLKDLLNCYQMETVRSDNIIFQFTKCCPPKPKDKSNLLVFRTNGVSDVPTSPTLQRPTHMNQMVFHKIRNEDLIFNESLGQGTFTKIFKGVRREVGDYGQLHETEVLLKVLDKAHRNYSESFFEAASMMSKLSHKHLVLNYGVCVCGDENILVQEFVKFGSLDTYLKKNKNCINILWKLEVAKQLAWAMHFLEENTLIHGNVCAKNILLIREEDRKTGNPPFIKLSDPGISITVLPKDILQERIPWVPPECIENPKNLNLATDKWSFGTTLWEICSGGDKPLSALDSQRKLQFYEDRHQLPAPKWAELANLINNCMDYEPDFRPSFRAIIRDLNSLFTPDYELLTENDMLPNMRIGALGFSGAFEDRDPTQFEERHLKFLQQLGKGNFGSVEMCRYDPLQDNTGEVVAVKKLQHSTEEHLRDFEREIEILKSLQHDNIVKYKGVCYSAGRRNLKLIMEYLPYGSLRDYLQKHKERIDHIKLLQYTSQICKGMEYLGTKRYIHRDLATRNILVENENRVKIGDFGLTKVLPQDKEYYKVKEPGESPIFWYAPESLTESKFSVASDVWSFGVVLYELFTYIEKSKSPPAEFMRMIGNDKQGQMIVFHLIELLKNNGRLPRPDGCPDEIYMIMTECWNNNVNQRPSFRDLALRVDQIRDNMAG

JAK3 = JAK3 (Homo sapiens (Human), UniProt P52333); assay: Z'-LYTE enzymatic activity detection, JAK3; conditions: test compound 30 nM; for inhibition at 0.03 µM: read-out: JAK3 % inhibitory rate @30 nM
Chain of JAK3 (P52333 whole entry): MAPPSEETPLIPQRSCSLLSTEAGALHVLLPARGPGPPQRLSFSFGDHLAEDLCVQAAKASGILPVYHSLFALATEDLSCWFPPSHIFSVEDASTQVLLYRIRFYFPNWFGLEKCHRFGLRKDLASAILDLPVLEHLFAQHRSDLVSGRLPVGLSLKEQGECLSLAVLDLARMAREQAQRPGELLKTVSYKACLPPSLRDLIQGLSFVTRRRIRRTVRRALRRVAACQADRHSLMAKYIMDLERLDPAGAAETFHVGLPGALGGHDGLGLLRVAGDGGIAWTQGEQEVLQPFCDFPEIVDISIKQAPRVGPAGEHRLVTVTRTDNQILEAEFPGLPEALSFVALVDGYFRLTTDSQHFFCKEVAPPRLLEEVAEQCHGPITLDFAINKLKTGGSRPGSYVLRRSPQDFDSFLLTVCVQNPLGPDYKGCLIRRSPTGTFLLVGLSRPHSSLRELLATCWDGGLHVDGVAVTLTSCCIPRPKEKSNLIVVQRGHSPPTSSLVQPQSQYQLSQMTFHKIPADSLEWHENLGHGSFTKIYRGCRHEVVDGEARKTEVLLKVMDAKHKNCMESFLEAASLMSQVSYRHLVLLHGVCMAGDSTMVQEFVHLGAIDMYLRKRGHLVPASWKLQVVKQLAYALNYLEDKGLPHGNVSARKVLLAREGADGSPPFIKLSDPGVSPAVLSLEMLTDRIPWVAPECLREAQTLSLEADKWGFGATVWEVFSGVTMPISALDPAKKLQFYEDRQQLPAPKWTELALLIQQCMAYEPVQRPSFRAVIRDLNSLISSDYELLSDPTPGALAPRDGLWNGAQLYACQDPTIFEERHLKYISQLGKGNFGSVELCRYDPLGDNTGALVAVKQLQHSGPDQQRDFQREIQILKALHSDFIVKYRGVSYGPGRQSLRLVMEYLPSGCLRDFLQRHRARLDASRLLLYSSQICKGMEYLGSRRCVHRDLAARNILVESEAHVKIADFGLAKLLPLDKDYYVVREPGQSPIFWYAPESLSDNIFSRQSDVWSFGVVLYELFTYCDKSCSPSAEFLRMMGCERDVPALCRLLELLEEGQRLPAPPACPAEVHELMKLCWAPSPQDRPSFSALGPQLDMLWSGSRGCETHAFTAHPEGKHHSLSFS
How it was run: as §1

ITK = ITK (Homo sapiens (Human), UniProt Q08881); assay: Eurofins IC50Profiler radiometric kinase assay, ITK; conditions: 9 semilog concentrations
Description: as §2

TBK1 = TBK1 (Homo sapiens (Human), UniProt Q9UHD2); assay: Eurofins IC50Profiler radiometric kinase assay, TBK1; conditions: 9 semilog concentrations
Chain of TBK1 (Q9UHD2 whole entry, species assumed): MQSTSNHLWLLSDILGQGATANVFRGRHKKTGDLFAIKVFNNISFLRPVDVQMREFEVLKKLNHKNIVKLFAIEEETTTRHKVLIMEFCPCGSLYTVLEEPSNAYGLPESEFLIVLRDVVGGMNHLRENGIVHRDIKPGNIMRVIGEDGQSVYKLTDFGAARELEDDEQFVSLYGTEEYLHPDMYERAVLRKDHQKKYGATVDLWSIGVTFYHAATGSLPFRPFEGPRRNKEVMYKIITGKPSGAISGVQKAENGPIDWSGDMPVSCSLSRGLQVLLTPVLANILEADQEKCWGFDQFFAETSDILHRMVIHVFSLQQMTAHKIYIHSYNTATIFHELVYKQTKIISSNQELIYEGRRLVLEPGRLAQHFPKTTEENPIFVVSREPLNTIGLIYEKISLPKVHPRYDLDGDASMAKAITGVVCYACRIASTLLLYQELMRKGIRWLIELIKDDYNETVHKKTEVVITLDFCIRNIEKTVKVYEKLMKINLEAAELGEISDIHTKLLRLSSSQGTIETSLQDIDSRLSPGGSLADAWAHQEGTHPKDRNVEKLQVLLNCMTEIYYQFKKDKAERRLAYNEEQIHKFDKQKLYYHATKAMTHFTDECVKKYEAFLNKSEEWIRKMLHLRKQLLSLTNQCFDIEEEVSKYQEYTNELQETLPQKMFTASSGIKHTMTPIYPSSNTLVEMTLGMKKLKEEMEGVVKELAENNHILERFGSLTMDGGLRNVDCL
Description: as §2

JAK2 [2] = biological target: T1, JAK2; assay: Z'-LYTE enzymatic activity detection, JAK2; conditions: test compound 30 nM; for inhibition at 0.03 µM: read-out: JAK2 % inhibitory rate @30 nM
How it was run: as §1
Target sequence in this assay (O60674 whole entry): as the sequence (O60674 whole entry, species assumed) above

Flt1 = Flt1 (Homo sapiens (Human), UniProt P17948); assay: Eurofins IC50Profiler radiometric kinase assay, Flt1; conditions: 9 semilog concentrations
Description: as §2

Chain of JAK1 (P23458 whole entry): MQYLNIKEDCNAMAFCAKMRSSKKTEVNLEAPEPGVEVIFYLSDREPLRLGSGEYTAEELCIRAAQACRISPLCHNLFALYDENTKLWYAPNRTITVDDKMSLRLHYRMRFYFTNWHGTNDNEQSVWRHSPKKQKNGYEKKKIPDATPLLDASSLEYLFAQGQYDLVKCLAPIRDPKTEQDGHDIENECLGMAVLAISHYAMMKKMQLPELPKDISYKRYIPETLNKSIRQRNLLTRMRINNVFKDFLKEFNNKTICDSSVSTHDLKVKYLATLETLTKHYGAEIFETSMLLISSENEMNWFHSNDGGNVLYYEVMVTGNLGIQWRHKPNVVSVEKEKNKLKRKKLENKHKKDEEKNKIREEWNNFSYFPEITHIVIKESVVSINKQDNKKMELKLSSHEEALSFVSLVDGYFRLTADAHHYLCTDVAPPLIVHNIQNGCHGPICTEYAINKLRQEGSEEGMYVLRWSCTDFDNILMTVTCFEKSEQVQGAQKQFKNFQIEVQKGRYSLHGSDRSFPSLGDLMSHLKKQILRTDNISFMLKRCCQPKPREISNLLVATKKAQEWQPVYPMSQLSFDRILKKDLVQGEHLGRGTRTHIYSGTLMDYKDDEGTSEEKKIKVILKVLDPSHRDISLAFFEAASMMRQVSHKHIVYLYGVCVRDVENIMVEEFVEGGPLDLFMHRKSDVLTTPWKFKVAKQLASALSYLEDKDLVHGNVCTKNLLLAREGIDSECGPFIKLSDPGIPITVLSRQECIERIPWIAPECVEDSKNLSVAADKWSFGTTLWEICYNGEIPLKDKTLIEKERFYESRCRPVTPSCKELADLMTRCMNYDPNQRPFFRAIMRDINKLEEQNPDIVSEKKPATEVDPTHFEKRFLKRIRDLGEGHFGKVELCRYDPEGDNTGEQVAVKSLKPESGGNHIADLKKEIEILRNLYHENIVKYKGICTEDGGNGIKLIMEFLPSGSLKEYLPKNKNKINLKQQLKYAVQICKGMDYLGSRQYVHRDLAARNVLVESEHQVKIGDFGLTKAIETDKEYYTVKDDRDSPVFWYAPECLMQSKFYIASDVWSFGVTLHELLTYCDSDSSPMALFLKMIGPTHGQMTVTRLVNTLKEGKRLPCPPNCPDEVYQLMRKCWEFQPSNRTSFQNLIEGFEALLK

Row | Structure (SMILES) | JAK1 RV (ratio between the inhibitory rate of the test compound and that of Xeljanz) (JAK1) | inhibition at 0.3 µM (JAK1) [%] | IC50 (BLK) [nM] | IC50 (JAK2 [1]) [nM] | JAK3 RV (ratio between the inhibitory rate of the test compound and that of Xeljanz) (JAK3) | inhibition at 0.03 µM (JAK3) [%] | IC50 (ITK) [nM] | IC50 (TBK1) [nM] | JAK2 RV (ratio between the inhibitory rate of the test compound and that of Xeljanz) (JAK2 [2]) | inhibition at 0.03 µM (JAK2 [2]) [%] | IC50 (Flt1) [nM]
1 | C=CC(=O)N(C)c1cc(Nc2ncc(Cl)c(NCCCNC(=O)c3ccc(C#N)cc3)n2)ccc1F [Example 7, N-(3-(5-chloro-2-(4-fluoro-3-(N-methylacrylamido)phenylamino)pyrimidinyl-4-amino)propyl)-4-cyano-benzamide] | 0.58 | 56 | 286 | 1400 | 0.84 | 63 | 319 | 162 | 0.08 | 5 | 698
2 | C=CC(=O)N(C)c1cc(Nc2ncc(Cl)c(NCCCNC(=O)c3ccc(F)cc3)n2)ccc1F [Example 23, N-(3-(5-chloro-2-(4-fluoro-3-(N-methylacrylamido)phenylamino)pyrimidinyl-4-amino)propyl)-4-fluorobenzamide] | 0.35 | 19 | 855 | 1920 | 0.88 | 81 | > 10000 | 664 |  | 0 | 1230
3 | C=CC(=O)N(C)c1cc(Nc2ncc(Cl)c(NCCCNC(=O)c3ccc(C(F)(F)F)cc3)n2)ccc1F [Example 22, N-(3-(5-chloro-2-(4-fluoro-3-(N-methylacrylamido)phenylamino)pyrimidinyl-4-amino)propyl)-4-trifluoromethylbenzamide] | 0.33 | 18 | 1660 | > 10000 | 0.82 | 75 | > 10000 | > 10000 |  | 0 | > 10000
